Measured values from US11207269B2, “Medical use of sPLA2 hydrolysable liposomes” (priority 2009, dated 2021).

Key:
[1] = comparison value for cisplatin, within 3 hours; cited from earlier work
[2] = system: human breast carcinoma cell line MT-3; test: Efficacy in mice: MT-3 breast xenografts on nude mice; format: in vivo, NMRI nude female mice; conditions: 4 mg/kg/inj. weekly i.v.; treated tumors divided with control tumors; Cisplatin at day 31, LiPlaCis at day 26
Procedure: NMRI nude female mice (6-8 weeks) were inoculated subcutaneously into the left flank with 1*10^7 cells of the human breast carcinoma cell line MT-3. Only mice carrying exponentially growing tumors were selected for the study. […] Tumor growth was assessed three times a week by measuring two perpendicular diameters and tumor growth was normalized for differing starting sizes by calculating relative tumor volume. Body weight was measured three times a week. Blood samples were taken four days after the first injection to estimate white blood cells and thrombocytes by Coulter counter.

## N.N.[Cl][Pt][Cl] [Cisplatin, cisplatin]
[1]
  urinary excretion: above 90%
[2]
  Optimum T/C (%) [at day]: 71%
